Assay results as given in patent US9284330B2 (priority 2011, dated 2016).
Where two headings read alike, the source gives them in different places.

How the values were obtained:
[1] = tested on: L-type Ca2+ channel; assay: Blocking of L-type Ca2+ channel by high content screening analyzer, KCl-induced calcium ion influx in SH-SY5Y cells (Fluo-4-AM)
[2] = target: acetylcholinesterase (Electrophorus electricus (Electric eel) (Gymnotus electricus), UniProt O42275); assay: biochemical
[3] = tested on: primary cortical neuron cells; details: 24 h incubation

Sequence of acetylcholinesterase (O42275 whole entry, looked up): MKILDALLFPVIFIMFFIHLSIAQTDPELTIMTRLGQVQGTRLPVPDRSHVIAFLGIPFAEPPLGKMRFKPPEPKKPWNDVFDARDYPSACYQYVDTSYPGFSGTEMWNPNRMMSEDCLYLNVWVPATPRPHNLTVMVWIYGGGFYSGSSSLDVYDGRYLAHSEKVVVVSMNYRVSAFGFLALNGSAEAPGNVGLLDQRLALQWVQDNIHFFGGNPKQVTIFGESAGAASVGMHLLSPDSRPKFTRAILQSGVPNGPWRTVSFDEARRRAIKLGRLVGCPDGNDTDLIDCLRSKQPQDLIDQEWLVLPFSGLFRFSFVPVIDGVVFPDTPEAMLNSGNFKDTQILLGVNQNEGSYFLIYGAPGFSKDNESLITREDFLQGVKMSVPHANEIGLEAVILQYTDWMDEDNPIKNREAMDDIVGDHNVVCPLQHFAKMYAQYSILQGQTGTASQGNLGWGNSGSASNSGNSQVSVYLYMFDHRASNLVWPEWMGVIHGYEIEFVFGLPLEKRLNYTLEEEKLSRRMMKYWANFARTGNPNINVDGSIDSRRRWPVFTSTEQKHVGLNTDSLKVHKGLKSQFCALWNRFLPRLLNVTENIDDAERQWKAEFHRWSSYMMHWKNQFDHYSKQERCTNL

| SMILES | Inhibition rate of KCl-induced calcium ion influx ([1]; 10 μM compound) | Inhibition rate of KCl-induced calcium ion influx ([1]; 50 μM compound) | IC50 [2] | Relative neuron activity (average) ([3]; 0.01 μM) | Relative neuron activity (average) ([3]; 0.1 μM) | Relative neuron activity (average) ([3]; 1 μM) |
| --- | --- | --- | --- | --- | --- | --- |
| CCOC(=O)C1=C(C)Nc2nc3c(c(N)c2C1c1ccc(C(F)(F)F)cc1)CC(C)CC3 (stereo not shown) [Compound S2, 5-amino-2,7-dimethyl-4-(4-trifluoromethylphenyl)-1,4,6,7,8,9-hexahydrobenzo[b][1,8]naphthyridine-3-carboxylic acid ethyl ester] | 38.79% | 94.01% | 0.558 µM | – | – | – |
| CCOC(=O)C1=C(C)Nc2nc3c(c(N)c2C1c1cccc(C(F)(F)F)c1)CC(C)(C)CC3 (stereo not shown) [Compound S4, 5-amino-4-(3-trifluoromethylphenyl)-2,7,7-trimethyl-1,4,6,7,8,9-hexahydrobenzo[b][1,8]naphthyridine-3-carboxylic acid ethyl ester] | 64.82% | 85.17% | 1.05 µM | – | – | – |
| C=CCOC(=O)C1=C(C)Nc2nc3c(c(N)c2C1c1cccc([N+](=O)[O-])c1)CC(C)(C)CC3 (stereo not shown) [Compound S5, 5-amino-4-(3-nitrophenyl)-2,7,7-trimallyl1,4,6,7,8,9-hexahydrobenzo[b][1,8]naphthyr idine-3-carboxylic acid allyl ester] | 14.40% | 62.43% | 0.77 µM | – | – | – |
| COC(=O)C1=C(C)Nc2nc3c(c(N)c2C1c1ccccc1)CC(C)(C)CC3 (stereo not shown) [Compound S7, 5-amino-4-phenyl-2,7,7-trimethyl-1,4,6,7,8,9-hexahydrobenzo[b][1,8]naphthyridine-3-carboxylic acid methyl ester] | 1.01% | 72.98% | 1.38 µM | – | – | – |
| CC1=C(C(=O)OC2CCC2)C(c2ccccc2F)c2c(nc3c(c2N)CC(C)(C)CC3)N1 (stereo not shown) [Compound S9, 5-amino-4-(2-fluorophenyl)-2,7,7-trimethyl-1,4,6,7,8,9-hexahydrobenzo[b][1,8]napht hyridine-3-carboxylic acid cyclobutyl ester] | 5.22% | 85.01% | 0.919 µM | – | – | – |
| CC1=C(C(=O)OCC2CC2)C(c2ccccc2Cl)c2c(nc3c(c2N)CC(C)(C)CC3)N1 (stereo not shown) [Compound S11, 5-amino-4-(2-chlorphenyl)-2,7,7-trimethyl-1,4,6,7,8,9-hexahydrobenzo[b][1,8]naphth yridine-3-carboxylic acid cyclopropylmethyl ester] | 54.69% | 75.06% | – | – | – | – |
| COC(=O)C1=C(C)Nc2nc3c(c(N)c2C1c1ccccc1)CN(C)CC3 (stereo not shown) [Compound S12, 5-amino-2,7-dimethyl-4-phenyl-1,4,6,7,8,9-hexahydropyrido[2,3-b][1,6]naphthyridine-3-carboxylic acid methyl ester] | 34.59% | 52.61% | – | – | – | – |
| COC(=O)C1=C(C)Nc2nc3c(c(N)c2C1c1cccc([N+](=O)[O-])c1)CCC(C)=C3 (stereo not shown) [Compound S18, 5-amino-2,8-dimethyl-4-(3-nitrophenyl)-1,4,6,7-tetrahydrobenzo[b][1,8]naphthyridine-3-carboxylic acid methyl ester] | – | – | 0.504 µM | – | – | – |
| CCOC(=O)C1=C(C)Nc2nc3c(c(N)c2C1c1cccc([N+](=O)[O-])c1)CC(Cl)(Cl)CC3 (stereo not shown) [Compound S20, 5-amino-7,7-dichloro-2-methyl-4-(3-nitrophenyl)-1,4,6,7,8,9-hexahydrobenzo[b][1,8]naphthyridine-3-carboxylic acid ethyl ester] | 46.88% | 99.27% | – | 103.9% | 98.5% | 47.5% |
| CCC1=C(C(=O)OC)C(c2cccc([N+](=O)[O-])c2)c2c(nc3c(c2N)CC(C)(C)CC3)N1 (stereo not shown) [Compound S25, 5-amino-7,7-dimethyl-4-(3-nitrophenyl)-2-ethyl-1,4,6,7,8,9-hexahydrobenzo[b][1,8]n aphthyridine-3-carboxylic acid methyl ester] | 1.02% | 63.52% | 0.842 µM | – | – | – |
| CC1=C(C(=O)OC(C)C)C(c2cncnc2)c2c(nc3c(c2N)CC(C)(C)CC3)N1 (stereo not shown) [Compound S26, 5-amino-2,7,7-trimethyl-4-(pyrimidin-5-yl)-1,4,6,7,8,9-hexahydrobenzo[b][1,8]napht hyridine-3-carboxylic acid isopropyl ester] | 30.18% | 41.41% | – | – | – | – |
| CCOC(=O)C1=C(C)Nc2nc3c(c(N)c2C1c1ccccc1OC)CC(C)CC3 (stereo not shown) [Compound S28, 5-amino-4-(2-methoxylphenyl)-2,7-dimethyl-1,4,6,7,8,9-hexahydrobenzo[b][1,8]naph thyridine-3-carboxylic acid ethyl ester] | – | – | 0.136 µM | – | – | – |
| COC(=O)C1=C(C)Nc2nc3c(c(N)c2C1c1cccc([N+](=O)[O-])c1)CC(C)(C)CC3 (stereo not shown) [Compound S30, 5-amino-2,7,7-trimethyl-4-(3-nitrophenyl)-1,4,6,7,8,9-hexahydrobenzo[b][1,8]naphth yridine-3-carboxylic acid methyl ester] | 29.44% | 80.73% | 5.96 µM | – | – | – |
| CCOC(=O)C1=C(C)Nc2nc3c(c(N)c2C1c1cccc([N+](=O)[O-])c1)CC(C)(C)CC3 (stereo not shown) [Compound S31, 5-amino-2,7,7-trimethyl-4-(3-nitrophenyl)-1,4,6,7,8,9-hexahydrobenzo[b][1,8]naphth yridine-3-carboxylic acid ethyl ester] | 19.10% | 93.34% | 3.03 µM | – | – | – |
| CC1=C(C(=O)OC(C)C)C(c2cccc(Cl)c2)c2c(nc3c(c2N)CC(C)(C)CC3)N1 (stereo not shown) [Compound S33, 5-amino-2,7,7-trimethyl-4-(3-chlorphenyl)-1,4,6,7,8,9-hexahydrobenzo[b][1,8]naphth yridine-3-carboxylic acid isopropyl ester] | – | – | 1.84 µM | – | – | – |
| C=CCOC(=O)C1=C(C)Nc2nc3c(c(N)c2C1c1cccc(F)c1)CC(C)(C)CC3 (stereo not shown) [Compound S35, 5-amino-4-(3-fluorophenyl)-2,7,7-trimethyl-1,4,6,7,8,9-hexahydrobenzo[b][1,8]napht hyridine-3-carboxylic acid allyl ester] | – | – | 1.79 µM | – | – | – |
| C#CCOC(=O)C1=C(C)Nc2nc3c(c(N)c2C1c1cccc(F)c1)CC(C)(C)CC3 (stereo not shown) [Compound S36, 5-amino-2,7,7-trimethyl-4-(3-fluorophenyl)-1,4,6,7,8,9-hexahydrobenzo[b][1,8]napht hyridine-3-carboxylic acid propargyl ester] | – | – | 1.93 µM | – | – | – |
| C#CCOC(=O)C1=C(C)Nc2nc3c(c(N)c2C1c1cccc([N+](=O)[O-])c1)CC(C)(C)CC3 (stereo not shown) [Compound S37, 5-amino-4-(3-nitrophenyl)-2,7,7-trimethyl-1,4,6,7,8,9-hexahydrobenzo[b][1,8]naphth yridine-3-carboxylic acid propargyl ester] | – | – | 1.86 µM | – | – | – |
| CCOC(=O)C1=C(C)N(C)c2nc3c(c(N)c2C1c1ccccc1Cl)CC(C)(C)CC3 (stereo not shown) [Compound S38, 5-amino-4-(2-chlorphenyl)-1,2,7,7-tetramethyl-1,4,6,7,8,9-hexahydrobenzo[b][1, 8]na phthyridine-3-carboxylic acid ethyl ester] | 17.97% | 51.19% | – | – | – | – |
